# From PMC3103432, “Effect of reverse transcriptase inhibitors on LINE-1 and Ty1 reverse transcriptase activities and on LINE-1 retrotransposition” (BMC Biochemistry, 2011)
# Where two headings read alike, the source gives them in different places. Marks after values point to notes of the source that are not given here.
# Assays:
# [1] = tested on: ORFeus-Hs (synthetic human L1) retrotransposition in HeLa cells; experiment: Cell-based L1 retrotransposition assay, ORFeus-Hs
# Description: (§1) The cell-based retrotransposition assay was conducted as described. HeLa cells (a gift from Dr. John Moran, University of Michigan) were seeded in 6-well dishes in DMEM (2×10^5 cells/well). The next day cells were transfected with Fugene 6 according to the manufacturer's manual. Each transfection consisted of 96 μl Opti-Mem, 1 μg pWA195 DNA and 3 μl Fugene 6. Sixteen hours after transfection, the cells were trypsinized and transferred to a 6 cm plate in DMEM with 2.5 μg/ml puromycin and the RT inhibitors. Three days after puromycin selection, dead cells were removed and puromycin resistant cells were trypsinized and counted with a hemocytometer. The puromycin resistant cells were plated on a 10 cm plate (1×10^4 cells/plate) in 10 ml DMEM with 500 μg/ml G418. The RT inhibitors were added to the same concentration as in the puromycin selection. […] Two weeks later, G418 resistant cells were fixed to the plate and stained with 0.1% crystal violet. The number of G418 resistant colonies was counted to calculate retrotransposition frequency. Six independent assays were done for each RT inhibitor.
# [2] = molecular target: T1, human L1 reverse transcriptase (MBP-RT fusion) (Homo sapiens, UniProt O00370); experiment: In vitro (cell-free) RT assay and kinetic analysis with recombinant L1 RT; type: biochemical; settings: for IC50: calculated as IC50 = Ki(1+ S/Km), read-out: IC50 against L1 RT; for Ki: competitive with respect to dTTP (AZTTP, d4TTP) or dCTP (ddCTP, 3TCTP), Lineweaver-Burk, read-out: Ki against L1 RT; for high concentration at which L1 RT was inhibited: inhibited only at this high concentration; for inhibition of L1 RT activity: concentrations as high as 500 μM
# T1 construct: Human L1 ORF2 amino acid 238-1061 was inserted behind MBP gene in frame; made in house; host or cells: E. coli BL21
# Description: (§2) The RT assays for HIV-1 and L1 RT were performed in a 20 μl reaction mixtures containing 50 mM Tris-Cl (pH 8.0), 50 mM KCl, 5 mM MgCl2, 10 mM DDT, 0.01 U template/primer, 1 μl [α-^32P] dTTP or [α-^32P] dCTP (final concentration 0.17 μM, 3000 Ci/mmol, 10 mCi/ml) at 37°C for 30 min. Then the mixture was spotted on DE81 paper and washed three times with 2×SSC buffer for a total time of 30 min. The DE81 paper was dried and counted by scintillation counter Beckman LS6000SC. RT assay for Ty1 RT was done under the same buffer condition except that 20 mM MgCl2 was used and the reaction mixture was incubated at room temperature. In each reaction the amounts of L1, HIV-1 and Ty1 RTs with the same specific activity were added. To test the inhibition of the RT inhibitors, 1 μl inhibitor was included in the mixture to obtain the desired concentration. […] All assays were done at least in triplicate.
# The kinetic analysis was performed under the same conditions described above but with various concentrations of substrates and inhibitors as indicated in the text. Poly (rA)-oligo (dT)12-18 and [α-^32P] dTTP were used to analyze AZTTP and d4TTP. Poly (rI)-oligo (dC)12-18 and [α-^32P] dCTP were used to assay ddCTP and 3TCTP.
# Ty1 RT [3] = molecular target: T2, Ty1 RT (Saccharomyces cerevisiae, UniProt Q99231); experiment: In vitro RT assay with recombinant Ty1 RT; type: biochemical; settings: for increase of Ty1 RT activity: at low concentrations; for high concentration at which Ty1 RT was inhibited: inhibited only at this high concentration
# T2 construct: recombinant Ty1 RT, which required C-terminal residues of integrase for its RT activity; made in house; host or cells: E. coli BL21 (co-transformed with chaperone plasmid pG-Tf2)
# T2 sequence (Q99231 1103-1755): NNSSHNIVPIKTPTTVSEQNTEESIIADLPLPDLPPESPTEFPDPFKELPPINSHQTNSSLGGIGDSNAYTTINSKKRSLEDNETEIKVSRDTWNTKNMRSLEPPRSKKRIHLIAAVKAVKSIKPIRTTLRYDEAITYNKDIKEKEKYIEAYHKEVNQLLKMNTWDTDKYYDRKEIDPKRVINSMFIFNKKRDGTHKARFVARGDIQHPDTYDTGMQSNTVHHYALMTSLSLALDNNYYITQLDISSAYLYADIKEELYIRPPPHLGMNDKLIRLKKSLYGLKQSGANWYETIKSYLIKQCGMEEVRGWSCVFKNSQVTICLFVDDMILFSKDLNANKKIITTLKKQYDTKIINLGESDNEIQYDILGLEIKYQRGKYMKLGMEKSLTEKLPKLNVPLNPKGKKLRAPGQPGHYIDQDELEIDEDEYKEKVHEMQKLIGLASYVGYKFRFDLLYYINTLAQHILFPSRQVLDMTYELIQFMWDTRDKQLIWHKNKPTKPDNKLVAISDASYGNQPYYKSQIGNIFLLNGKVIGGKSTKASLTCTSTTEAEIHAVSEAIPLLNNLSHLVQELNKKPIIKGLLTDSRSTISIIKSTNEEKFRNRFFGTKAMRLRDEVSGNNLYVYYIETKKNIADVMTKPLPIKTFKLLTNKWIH
# Description: as §2
# [4] = tested on: ORFeus-Mm (synthetic mouse L1) retrotransposition; experiment: Cell-based L1 retrotransposition assay, ORFeus-Mm; settings: control = 1.0, normalized to cell viability
# Description: as §1
# HIV-1 = tested on: HIV-1; set-up: method as in PMID 2413459; settings: cited from earlier work
# HIV-1 RT = settings: read-out: IC50 against HIV-1 RT; previously reported; cited from earlier work
# HeLa cells = experiment: Cell cytotoxicity of RT inhibitors; type: cell-based, human
# Description: Untransfected Hela cells were plated on 10 cm plate (500 cells/plate) with and without RT inhibitors. Ten days later, cells were fixed to the plate and stained with 0.1% crystal violet. The number of colonies was counted to calculate colony formation ability. Colony formation ability of control assay without inhibitors was considered as 1.0 and colony formation ability in the presence of inhibitors was indicated as relative efficiency with respect to the control.
# [5] = tested on: AMV RT, MLV RT, human DNA polymerases α, β, γ and Klenow fragment; settings: cited from earlier work
# [6] = tested on: HIV-1 mutants (substitutions at positions 103, 106, 181, 188 and 190); set-up: method as in PMID 17370068; settings: cited from earlier work
# Ty1 RT [7] = molecular target: T2, Ty1 RT; set-up: method as in PMID 10816427, PMID 11577982; settings: ratio of ddGTP/GTP 0.2; cited from earlier work
# [8] = Homo sapiens, HeLa, 5 μM, control = 1.0, normalized to cell viability, read-out: Relative retrotransposition efficiency
# [9] = Homo sapiens, HeLa, 50 μM, control = 1.0, normalized to cell viability, read-out: Relative retrotransposition efficiency
# [10] = 50 μM, control = 1.0, normalized to cell viability
smiles,measurement,setting,value
"Nc1ccn([C@H]2CS[C@@H](CO)O2)c(=O)n1 [3TC, 2',3'-dideoxy-3'-thiacytidine]",activity at 5 µM,[1]; [8],8 ± 3%
same,activity at 50 µM,[1]; [9],3 ± 3%
"Nc1ccn([C@@H]2CS[C@H](COP(=O)(O)OP(=O)(O)OP(=O)(O)O)O2)c(=O)n1 [3TCTP, 2',3'-dideoxy-3'-thiacytidine triphosphate]",IC50,[2],18.6 nM
same,Ki,[2],12.9 ± 0.16 nM
same,increase of Ty1 RT activity,Ty1 RT [3],up to 40%
"Nc1nc(NC2CC2)c2ncn(C3C=C[C@H](CO)C3)c2n1 (stereo partly drawn) [ABC, [(1R)-4-[2-amino-6-(cyclopropylamino)purin-9-yl]-1-cyclopent-2-enyl]methanol]",Relative retrotransposition efficiency,[4]; 5 μM,0.80 ± 0.05
same,Relative retrotransposition efficiency,[4]; 50 μM,0.15 ± 0.03
same,activity at 5 µM,[1]; [8],74 ± 6%
same,activity at 50 µM,[1]; [9],20 ± 4%
"Cc1cn([C@H]2C[C@H](N=[N+]=[N-])[C@@H](CO)O2)c(=O)[nH]c1=O [AZT, azidothymidine]",Relative retrotransposition efficiency,[4]; 5 μM,0.75 ± 0.08
same,Relative retrotransposition efficiency,[4]; 50 μM,0.16 ± 0.02
same,concentration completely inhibiting HIV-1 production,HIV-1,1 to 3 µM
same,activity at 5 µM,[1]; [8],62 ± 6%
same,activity at 50 µM,[1]; [9],23 ± 4%
"Cc1cn([C@H]2C[C@H](N=[N+]=[N-])[C@@H](CO[P@](=O)(O)O[P@](=O)(O)OP(=O)(O)O)O2)c(=O)[nH]c1=O [AZTTP, azidothymidine triphosphate]",IC50,[2],19.8 nM
same,Ki,[2],16.4 ± 4.21 nM
same,increase of Ty1 RT activity,Ty1 RT [3],up to 40%
"CC(C)Nc1cccnc1N1CCN(C(=O)c2cc3cc(NS(C)(=O)=O)ccc3[nH]2)CC1 [DLV, delavirdine]",Relative retrotransposition efficiency,[4]; 5 μM,0.60 ± 0.05
same,Relative retrotransposition efficiency,[4]; 50 μM,0.02 ± 0.01
same,high concentration at which L1 RT was inhibited,[2],50 µM
same,IC50,HIV-1 RT,260 nM
same,activity at 5 µM,[1]; [8],63%
same,activity at 50 µM,[1]; [9],28 ± 3%
same,inhibition at 50 µM,"[1]; Homo sapiens, HeLa, 50 μM, read-out: inhibition of L1 retrotransposition efficiency",~72%
same,concentration causing massive HeLa cell death,HeLa cells,100 µM
same,high concentration at which Ty1 RT was inhibited,Ty1 RT [3],50 µM
"O=C1Nc2ccc(Cl)cc2[C@@](C#CC2CC2)(C(F)(F)F)O1 [EFV, efavirenz]",high concentration at which L1 RT was inhibited,[2],500 µM
same,activity at 5 µM,[1]; [8],28 ± 2%
same,inhibition at 5 µM,"[1]; Homo sapiens, HeLa, 5 μM, read-out: inhibition of L1 retrotransposition efficiency",~72%
same,activity against a variety of polymerases,[5],inactive
same,concentration causing massive HeLa cell death,HeLa cells,50 µM
same,high concentration at which Ty1 RT was inhibited,Ty1 RT [3],500 µM
"Nc1nc(=O)n(C2CSC(CO)O2)cc1F (stereo not shown) [FTC, 4-amino-5-fluoro-1-[2-(hydroxymethyl)-1,3-oxathiolan-5-yl]-pyrimidin-2-one]",Relative retrotransposition efficiency,[4]; 5 μM,0.34 ± 0.01
same,Relative retrotransposition efficiency,[4]; 50 μM,0.26 ± 0.04
same,activity at 5 µM,[1]; [8],25 ± 1%
same,activity at 50 µM,[1]; [9],12 ± 4%
"Cc1ccnc2c1NC(=O)c1cccnc1N2C1CC1 [NVP, nevirapine]",inhibition of L1 RT activity,[2],no inhibition
same,inhibition of L1 RT activity,[2]; listed as nevirapine,no effect
same,reduction of susceptibility in HIV-1 mutants,[6],more than 50 fold
same,activity at 5 µM,[1]; [8],108 ± 13%
same,activity at 50 µM,[1]; [9],89 ± 3%
same,activity at 200 µM,"[1]; Homo sapiens, HeLa, 200 μM, control = 1.0, normalized to cell viability, read-out: Relative retrotransposition efficiency",89%
same,activity at 400 µM,"[1]; Homo sapiens, HeLa, 400 μM, control = 1.0, normalized to cell viability, read-out: Relative retrotransposition efficiency",87 ± 3%
same,decrease of L1 transposition frequency,[1]; at all tested concentrations,~ 10%
same,activity against a variety of polymerases,[5],inactive
same,inhibition of Ty1 RT activity,Ty1 RT [3]; concentrations as high as 500 μM,no inhibition
"Cc1cn([C@H]2C=C[C@@H](CO)O2)c(=O)[nH]c1=O [d4T, 2'-3'-didehydro-2'-3'-dideoxythymidine]",Relative retrotransposition efficiency,[4]; 5 μM,0.28 ± 0.05
same,Relative retrotransposition efficiency,[4]; 50 μM,0.01 ± 0.02
same,Relative retrotransposition efficiency,"[1]; 5 μM, control = 1.0, normalized to cell viability",0.50 ± 0.05
same,Relative retrotransposition efficiency,[1]; [10],0.05 ± 0.04
"Cc1cn([C@H]2C=C[C@@H](COP(=O)(O)OP(=O)(O)OP(=O)(O)O)O2)c(=O)[nH]c1=O [d4TTP, 2'-3'-didehydro-2'-3'-dideoxythymidine triphosphate]",IC50,[2],0.88 nM
same,Ki,[2],0.73 ± 0.22 nM
Nc1ccn([C@H]2C[C@H](O)[C@@H](COP(=O)(O)OP(=O)(O)OP(=O)(O)O)O2)c(=O)n1 [dCTP],Km,"[2]; poly (rI)-oligo (dC)12-18, no inhibitor, read-out: Km value for dCTP substrate",0.38 µM
Cc1cn([C@H]2C[C@H](O)[C@@H](COP(=O)(O)OP(=O)(O)OP(=O)(O)O)O2)c(=O)[nH]c1=O [dTTP],Km,"[2]; poly (rA)-oligo (dT)12-18, no inhibitor, read-out: Km value for dTTP",0.83 µM
"Nc1ccn([C@H]2CC[C@@H](CO)O2)c(=O)n1 [ddC, 2'-3'-dideoxycytidine]",Relative retrotransposition efficiency,[4]; 5 μM,<0.0025^c
same,Relative retrotransposition efficiency,[4]; 50 μM,<0.0025^c
same,Relative retrotransposition efficiency,[1]; [10],<0.005^c
"Nc1ccn([C@H]2CC[C@@H](COP(=O)(O)OP(=O)(O)OP(=O)(O)O)O2)c(=O)n1 [ddCTP, 2'-3'-dideoxycytidine triphosphate]",IC50,[2],1.04 nM
same,Ki,[2],0.72 ± 0.16 nM
same,increase of Ty1 RT activity,Ty1 RT [3],up to 40%
Nc1nc2c(ncn2[C@H]2CC[C@@H](COP(=O)(O)OP(=O)(O)OP(=O)(O)O)O2)c(=O)[nH]1 [ddGTP],decrease of Ty1 RT activity,Ty1 RT [7],90%
"O=c1[nH]cnc2c1ncn2[C@H]1CC[C@@H](CO)O1 [ddI, 2'-3'-dideoxyinosine]",Relative retrotransposition efficiency,[4]; 5 μM,<0.0025^c
same,Relative retrotransposition efficiency,[4]; 50 μM,<0.0025^c
same,Relative retrotransposition efficiency,[1]; [10],<0.005^c
